Data taken from article PMC12837263, “β,β-Dimethylacrylalkannin Restores Colistin Efficacy Against mcr- and TCS-Mediated Resistant Gram-Negative Bacteria via Membrane Disturbance” (Antibiotics, 2025).

Experiments:
Assay type in all cases: cell-based
K. pneumoniae 126(mcr-8) = test: Checkerboard assay (MIC, FICI)
Description: (§1) The FICI of β,β-Dim–colistin combination was determined by a checkerboard assay. Briefly, two-fold serial dilutions of β,β-Dim and colistin were prepared in a 96-well plate. After incubation at 37 °C for 18 h with bacterial suspension (10^6 CFU/mL), OD600 values were measured. FICI = (MICβ,β-Dim in combination/MICβ,β-Dim) + (MICcolistin in combination/MICcolistin). The synergistic effect of β,β-Dim with other antibiotics was measured in the same way. Synergy was considered to be an FICI ≤ 0.5.

K. pneumoniae 109(mcr-8) = test: Checkerboard assay (MIC, FICI)
Description: as §1

[1] = tested on: K. pneumoniae 251(mgrB、phoP、pmrA、blaKPC); test: Checkerboard assay (MIC, FICI)
Description: as §1

P. aeruginosa PAO1 = test: Checkerboard assay (MIC, FICI)
Description: as §1

E. coli ZJ71(mcr-1) = test: Checkerboard assay (MIC, FICI)
Description: as §1

A. baumannii ATCC 19606 = test: Checkerboard assay (MIC, FICI)
Description: as §1

E. coli ATCC 25922 = test: Checkerboard assay (MIC, FICI)
Description: as §1

[2] = tested on: E. coli BW25113-184-mcr-1; test: Checkerboard assay (MIC, FICI)
Description: as §1

K. pneumoniae ATCC 13883 = test: Checkerboard assay (MIC, FICI)
Description: as §1

K. pneumoniae 20(mcr-1) = test: Checkerboard assay (MIC, FICI)
Description: as §1

[3] = tested on: K. pneumoniae 29(mcr-8、pmrB、blaNDM); test: Checkerboard assay (MIC, FICI)
Description: as §1

E. coli 13f4(mcr-1) = test: Checkerboard assay (MIC, FICI)
Description: as §1

[4] = tested on: E. coli BW25113-pmrBR93P(pmrB); test: Checkerboard assay (MIC, FICI)
Description: as §1

P. aeruginosa 9(mcr-1) = test: Checkerboard assay (MIC, FICI)
Description: as §1

E. coli BW25113-184 = test: Checkerboard assay (MIC, FICI)
Description: as §1

[5] = tested on: S. Typhimurium 9891(mcr-1); test: Checkerboard assay (MIC, FICI)
Description: as §1

[6] = tested on: K. pneumoniae 57(mcr-9、blaNDM); test: Checkerboard assay (MIC, FICI)
Description: as §1

[7] = tested on: E. coli BW25113-pmrAD82N(pmrA); test: Checkerboard assay (MIC, FICI)
Description: as §1

[8] = tested on: S. Typhimurium ATCC 14028; test: Checkerboard assay (MIC, FICI)
Description: as §1

[9] = tested on: K. pneumoniae 492(mcr-1、blaNDM); test: Checkerboard assay (MIC, FICI)
Description: as §1

E. coli pHSG299-mcr-3 = test: Checkerboard assay (MIC, FICI)
Description: as §1

[10] = tested on: K. pneumoniae 650(mgrB、phoP、pmrA、blaKPC); test: Checkerboard assay (MIC, FICI)
Description: as §1

[11] = tested on: K. pneumoniae 197(mcr-1、blaNDM); test: Checkerboard assay (MIC, FICI)
Description: as §1

[12] = tested on: K. pneumoniae 667(phoP、pmrA、blaKPC); test: Checkerboard assay (MIC, FICI)
Description: as §1

K. pneumoniae 667 = test: Bacterial growth curves; details: β,β-Dim 4 µg/mL, colistin 0.5 µg/mL, alone or combined; 24 h
Description: Overnight cultures of K. pneumoniae 667 and E. coli 13f4 were diluted to 10^6 CFU/mL; then, β,β-Dim (4 μg/mL), colistin (0.5 or 2 μg/mL), and their combination were co-incubated with bacterial suspensions in a 96-well plate. OD600 values were monitored hourly over a 24 h period.

[13] = tested on: K. pneumoniae, E. coli, Salmonella, P. aeruginosa, and A. baumannii; test: Checkerboard assay, panel of tested strains (summary statements)
Description: as §1

[14] = Klebsiella pneumoniae, read-out: MIC of β,β-Dim
[15] = Escherichia coli, read-out: MIC of β,β-Dim
[16] = Escherichia coli, BW25113, read-out: MIC of β,β-Dim

CC(C)=CC[C@H](OC(=O)C=C(C)C)C1=CC(=O)c2c(O)ccc(O)c2C1=O [β,β-Dim, β,β-dimethylacrylalkannin]
MIC of β,β-Dim [Combination] (K. pneumoniae 126(mcr-8); 126, with colistin): 8 µg/mL | MIC (K. pneumoniae 126(mcr-8); [14]): > 128 µg/mL | MIC of β,β-Dim [Combination] (K. pneumoniae 109(mcr-8); 109, with colistin): 4 µg/mL | MIC (K. pneumoniae 109(mcr-8); [14]): > 128 µg/mL | MIC of β,β-Dim [Combination] ([1]; 251, with colistin): 4 µg/mL | MIC [1, 14]: > 128 µg/mL | MIC of β,β-Dim [Combination] (P. aeruginosa PAO1; PAO1, with colistin): 2 µg/mL | MIC (P. aeruginosa PAO1; Pseudomonas aeruginosa, PAO1, read-out: MIC of β,β-Dim): > 128 µg/mL | MIC (E. coli ZJ71(mcr-1); [15]): > 128 µg/mL | MIC of β,β-Dim [Combination] (E. coli ZJ71(mcr-1); ZJ71, with colistin): 4 µg/mL | MIC of β,β-Dim [Combination] (A. baumannii ATCC 19606; 19606, with colistin): 4 µg/mL | MIC (A. baumannii ATCC 19606; Acinetobacter baumannii, ATCC19606, read-out: MIC of β,β-Dim): > 128 µg/mL | MIC of β,β-Dim [Combination] (E. coli ATCC 25922; 25922, with colistin): 2 µg/mL | MIC (E. coli ATCC 25922; Escherichia coli, ATCC25922, read-out: MIC of β,β-Dim): > 128 µg/mL | MIC of β,β-Dim [Combination] ([2]; BW25113-184-mcr-1, with colistin): 4 µg/mL | MIC [2, 16]: > 128 µg/mL | MIC of β,β-Dim [Combination] (K. pneumoniae ATCC 13883; 13883, with colistin): 2 µg/mL | MIC (K. pneumoniae ATCC 13883; Klebsiella pneumoniae, ATCC13883, read-out: MIC of β,β-Dim): > 128 µg/mL | MIC of β,β-Dim [Combination] (K. pneumoniae 20(mcr-1); 20(mcr-1), with colistin): 4 µg/mL | MIC (K. pneumoniae 20(mcr-1); [14]): > 128 µg/mL | MIC of β,β-Dim [Combination] ([3]; 29, with colistin): 4 µg/mL | MIC [3, 14]: > 128 µg/mL | MIC of β,β-Dim [Combination] (E. coli 13f4(mcr-1); 13f4, with colistin): 4 µg/mL | MIC (E. coli 13f4(mcr-1); [15]): > 128 µg/mL | MIC of β,β-Dim [Combination] ([4]; BW25113-pmrBR93P, with colistin): 8 µg/mL | MIC [4, 16]: > 128 µg/mL | MIC of β,β-Dim [Combination] (P. aeruginosa 9(mcr-1); P. aeruginosa 9, with colistin): 16 µg/mL | MIC (P. aeruginosa 9(mcr-1); Pseudomonas aeruginosa, read-out: MIC of β,β-Dim): > 128 µg/mL | MIC of β,β-Dim [Combination] (E. coli BW25113-184; BW25113-184, with colistin): 2 µg/mL | MIC (E. coli BW25113-184; [16]): > 128 µg/mL | MIC of β,β-Dim [Combination] ([5]; 9891, with colistin): 8 µg/mL | MIC ([5]; Salmonella enterica, TYPHIMURIUM, read-out: MIC of β,β-Dim): > 128 µg/mL | MIC of β,β-Dim [Combination] ([6]; 57, with colistin): 8 µg/mL | MIC [6, 14]: > 128 µg/mL | MIC of β,β-Dim [Combination] ([7]; BW25113-pmrAD82N, with colistin): 8 µg/mL | MIC [7, 16]: > 128 µg/mL | MIC of β,β-Dim [Combination] ([8]; 14028, with colistin): 0.5 µg/mL | MIC ([8]; Salmonella enterica, read-out: MIC of β,β-Dim): > 128 µg/mL | MIC of β,β-Dim [Combination] ([9]; 492, with colistin): 2 µg/mL | MIC [9, 14]: > 128 µg/mL | MIC (E. coli pHSG299-mcr-3; Escherichia coli, PHSG299MCR3, read-out: MIC of β,β-Dim): > 128 µg/mL | MIC of β,β-Dim [Combination] (E. coli pHSG299-mcr-3; pHSG299-mcr-3, with colistin): 8 µg/mL | MIC of β,β-Dim [Combination] ([10]; 650, with colistin): 8 µg/mL | MIC [10, 14]: > 128 µg/mL | MIC of β,β-Dim [Combination] ([11]; 197, with colistin): 8 µg/mL | MIC [11, 14]: > 128 µg/mL | MIC of β,β-Dim [Combination] ([12]; 667, with colistin): 2 µg/mL | MIC [12, 14]: > 128 µg/mL | bacterial growth (growth curves) (K. pneumoniae 667): neither β,β-Dim (4 µg/mL) nor colistin (0.5 µg/mL) alone inhibited the growth | antibacterial activity against Gram-negative bacteria ([13]; β,β-Dim alone): did not exhibit antibacterial activity | FICI ([13]; β,β-Dim with colistin, summary over tested strains): < 0.5
